The test system of this test is NHACs. The experiment in a line: calcium flux assay. It is filed as cell-based, human. The following applies: Homo sapiens; for Emax: read-out: (A) % Efficacy. An outline of the steps:
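FLIPR fluorescence (ex 470–495 nm, em 515–575 nm) was read before and after compound dispense at the indicated dose. Chondrocytes (NHACs), 2000 cells/well, had been dye-loaded 24 h after plating with Calcium 5 in HBSS/HEPES plus 5 mM probenecid, 1 h, room temperature.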

Molecules are shown by their SMILES.

For the compound `Cc1cc([C@H]2[C@H]3O[C@H]([C@H](O)[C@@H]3O)[C@@H]2C(=O)Nc2cnc(Cl)c(Cl)c2)ccn1` [Example 162, (1S,2R,3S,4R,5S,6R)—N-(5,6-dichloropyridin-3-yl)-5,6-dihydroxy-3-(2-methylpyridin-4-yl)-7-oxabicyclo[2.2.1]heptane-2-carboxamide], the EC50 was greater than 50 µM and the Emax was 25%.

For the compound `Cc1ccc([C@H]2[C@H]3O[C@H](C[C@@H]3F)[C@@H]2C(=O)Nc2ccc(Cl)c(Cl)c2)cn1` [Example 115, (1R,2R,3S,4R,5S)—N-(3,4-dichlorophenyl)-5-fluoro-3-(6-methylpyridin-3-yl)-7-oxabicyclo[2.2.1]heptane-2-carboxamide], the EC50 is 33 µM and the Emax worked out at 49%.

For the compound `Cc1cc([C@H]2[C@H]3O[C@H](C[C@H]3F)[C@H]2C(=O)Nc2ccc(Cl)c(Cl)c2)ccn1` [Example 13, (1R,2S,3S,4R,5R)-N-(3,4-dichlorophenyl)-5-fluoro-3-(2-methylpyridin-4-yl)-7-oxabicyclo[2.2.1]heptane-2-carboxamide], the concentration giving a half-maximal response (EC50) is 4.5 µM and the Emax is 68%.

Regarding `COc1cc([C@H]2[C@H]3O[C@H](C[C@@H]3O)[C@H]2C(=O)Nc2ccc(Cl)c(Cl)c2)ccn1` (racemic) [Example 49, rac-(1R,2S,3S,4R,5S)—N-(3,4-dichlorophenyl)-5-hydroxy-3-(2-methoxypyridin-4-yl)-7-oxabicyclo[2.2.1]heptane-2-carboxamide], the EC50 turned out to be 11 µM and the Emax is 77%.

For the compound `CO[C@H]1C[C@H]2O[C@@H]1[C@H](c1ccnc(C)c1)[C@H]2C(=O)Nc1ccc(Cl)c(Cl)c1` [Example 155, (1R,2R,3S,4R,5S)—N-(3,4-dichlorophenyl)-5-methoxy-3-(2-methylpyridin-4-yl)-7-oxabicyclo[2.2.1]heptane-2-carboxamide], the EC50 turned out to be 26 µM and the Emax came to 262%.

For the compound `COc1cc([C@H]2[C@H]3O[C@H]([C@@H]4C[C@@H]43)[C@H]2C(=O)Nc2ccc(Cl)c(Cl)c2)ccn1` [Example 24, (1S,2S,4R,5R,6S,7S)-N-(3,4-dichlorophenyl)-7-(2-methoxypyridin-4-yl)-8-oxatricyclo[3.2.1.0^2,4]octane-6-carboxamide], the concentration for a half-maximal effect (EC50) was determined as 11 µM and the Emax was determined as 71%.

Consider `CN[C@@H]1C[C@H]2O[C@@H]1[C@H](c1ccnc(F)c1)[C@H]2C(=O)Nc1ccc(Cl)c(Cl)c1` [Example 171, (1R,2R,3S,4R,5R)—N-(3,4-dichlorophenyl)-3-(2-fluoropyridin-4-yl)-5-(methylamino)-7-oxabicyclo[2.2.1]heptane-2-carboxamide], for which the 50% effective concentration (EC50) was 24 µM and the Emax worked out at 237%.

With `O=C(Nc1ccc(Cl)c(Cl)c1)[C@H]1[C@@H](c2cnc(C(F)(F)F)nc2)[C@H]2O[C@@H]1C[C@@H]2O` [Example 62, (1R,2S,3S,4R,5S)—N-(3,4-dichlorophenyl)-5-hydroxy-3-(2-(trifluoromethyl)pyrimidin-5-yl)-7-oxabicyclo[2.2.1]heptane-2-carboxamide], the concentration for a half-maximal effect (EC50) worked out at 8.2 µM and the Emax came to 61%.

On to `Cc1cc([C@@H]2[C@@H](C(=O)Nc3ccc(Cl)c(Cl)c3)[C@@H]3O[C@H]2C[C@H]3F)ccn1` [Example 106, (1S,2R,3S,4S,6R)—N-(3,4-dichlorophenyl)-6-fluoro-3-(2-methylpyridin-4-yl)-7-oxabicyclo[2.2.1]heptane-2-carboxamide], for which the concentration giving a half-maximal response (EC50) worked out at 24 µM and the Emax was found to be 84%.

Take `O=C(Nc1ccc(Cl)c(Cl)c1)[C@H]1[C@@H](c2ccnc(F)c2F)[C@H]2O[C@@H]1C[C@@H]2O` [Example 59, (1R,2S,3S,4R,5S)—N-(3,4-dichlorophenyl)-3-(2,3-difluoropyridin-4-yl)-5-hydroxy-7-oxabicyclo[2.2.1]heptane-2-carboxamide]: the EC50 stood at 1.2 µM and the Emax was found to be 254%.

For `O=C(Nc1ccc(Cl)c(Cl)c1)[C@@H]1[C@@H]2O[C@@H]([C@H]3C[C@H]32)[C@@H]1c1ccncc1` [Example 44, (1S,2S,4R,5R,6S,7S)—N-(3,4-dichlorophenyl)-7-(pyridin-4-yl)-8-oxatricyclo[3.2.1.0^2,4]octane-6-carboxamide], the EC50 is greater than 50 µM and the Emax was determined as 0%.

As for `Cc1cc([C@@H]2[C@@H]3O[C@@H](C[C@H]3O)[C@@H]2C(=O)Nc2ccc(Cl)c(Cl)c2)ccn1` (single isomer, unassigned) [Example 53b], the EC50 was greater than 50 µM and the Emax stood at 119%.

As to `Cc1cc([C@@H]2[C@@H](C(=O)Nc3cccc(C(F)(F)F)c3)[C@@H]3O[C@H]2C[C@H]3O)ccn1` [Example 86, (1S,2R,3S,4S,6R)-6-hydroxy-3-(2-methylpyridin-4-yl)-N-(3-(trifluoromethyl)phenyl)-7-oxabicyclo[2.2.1]heptane-2-carboxamide], the 50% effective concentration (EC50) is greater than 50 µM and the Emax was determined as 38%.

With `O=C(Nc1cccc(C(F)(F)F)c1)[C@@H]1[C@@H]2O[C@@H]([C@H]3C[C@H]32)[C@@H]1c1cncnc1` [Example 37, (1S,2S,4R,5R,6S,7S)-7-(pyrimidin-5-yl)-N-(3-(trifluoromethyl)phenyl)-8-oxatricyclo[3.2.1.0^2,4]octane-6-carboxamide], the EC50 was greater than 50 µM and the Emax is 26%.

In the case of `O=C(Nc1ccc(Cl)c(Cl)c1)[C@H]1[C@H]2O[C@H]([C@@H]3C[C@@H]32)[C@H]1c1cncnc1` (single isomer, unassigned) [Example 28], the EC50 came to 23 µM and the Emax is 167%.

As for `O=C(Nc1ccc(Cl)c(Cl)c1)[C@@H]1[C@@H](c2ccnc(F)c2)[C@H]2O[C@@H]1C[C@@H]2O` (racemic) [Example 142, rac-(1R,2R,3S,4R,5S)—N-(3,4-dichlorophenyl)-3-(2-fluoropyridin-4-yl)-5-hydroxy-7-oxabicyclo[2.2.1]heptane-2-carboxamide], the EC50 was found to be 28 µM and the Emax was 142%.

For `O=C(Nc1cnc(Cl)c(Cl)c1)[C@@H]1[C@@H](c2ccncc2)[C@H]2O[C@@H]1C[C@@H]2O` [Example 87, (1R,2R,3S,4R,5S)—N-(5,6-dichloropyridin-3-yl)-5-hydroxy-3-(pyridin-4-yl)-7-oxabicyclo[2.2.1]heptane-2-carboxamide], the concentration giving a half-maximal response (EC50) is greater than 50 µM and the Emax turned out to be 14%.

In the case of `Cc1cc([C@H]2[C@H]3O[C@H]([C@H](O)[C@@H]3O)[C@@H]2C(=O)Nc2cnc(C)c(C(F)(F)F)c2)ccn1` [Example 163, (1S,2R,3S,4R,5S,6R)-5,6-dihydroxy-N-(6-methyl-5-(trifluoromethyl)pyridin-3-yl)-3-(2-methylpyridin-4-yl)-7-oxabicyclo[2.2.1]heptane-2-carboxamide], the EC50 was greater than 50 µM and the Emax amounted to 23%.

As for `Cc1cc([C@H]2[C@H]3O[C@H](C[C@H]3F)[C@H]2C(=O)Nc2cccc(C(F)(F)F)c2)ccn1` [Example 15, (1R,2S,3S,4R,5R)-5-fluoro-3-(2-methylpyridin-4-yl)-N-[3-(trifluoromethyl)phenyl]-7-oxabicyclo[2.2.1]heptane-2-carboxamide], the EC50 was greater than 50 µM and the Emax is 0%.

As a reminder, the EC50 is the concentration giving half of the maximal effect.

The values above are taken from patent US12209096B2, “Compounds and compositions for inducing chondrogenesis” (NOVARTIS AG, priority 2017, dated 2025).
